Source: patent publication US8207211B2, “Photosensitizers for targeted photodynamic therapy” (The General Hospital Corporation, priority 2005, dated 2012)

What was measured:
E. coli = assay: Photodynamic inactivation (PDI), CFU survival, white light (red light for TBO); assay type: cell-based, Escherichia coli; conditions: 10 μM; for change of E. coli killing in the presence of serum versus no serum: white light; for PDT activity against E. coli: white light up to 50 J/cm^2
Protocol: (§1) Staphylococcus aureus (ATCC #35556), Escherichia coli (ATCC #25922), and Pseudomonas aeruginosa (ATCC #BAA-47; PAO1) were cultured in brain-heart infusion (BHI) broth (Difco, BD Diagnosttic Systems, Sparks, Md.) at 37° C. in aerobic conditions in a shaker at 150 rpm. Candida albicans (ATCC #18804) is grown in YM broth (Difco). Exponential cultures obtained by reculturing stationary overnight precultures were used for experiments.
(§2) E. coli, P. aeruginosa, and S. aureus are grown in fresh medium for approximately 1 hr to a density of about 10^8 cells/ml; the OD values at 650 nm are 0.6, 0.8, and 0.8, respectively. C. albicans is grown for approximately 4 hr to an approximate density of 10^8 cells/ml, corresponding to an OD of 6 at 650 nm (measured at 10-fold dilution). Cells were used for experiments in the mid-log growth phase.
(§3) A noncoherent lamp with filtered liquid light guides, e.g., a LumaCare™ LC122 lamp (MBG Technologies, Inc., Newport Beach, Calif.) was used to provide illumination of PS. More specifically, for illumination of fullerenes, a broad-band white light band pass filter (400-700 nm) was used, whereas for TBO, a band pass filter at 620-650 nm was used. The lamp was adjusted to give a uniform spot of about 4 cm diameter with an irradiance of 200 mW/cm^2, as measured with a power meter, e.g., a model DMM 199 meter with 201 Standard head (Coherent, Santa Clara, Calif.).
(§4) Typically, derivatized fullerenes prepared as described above are dissolved in DMSO to provide stock solutions having final concentrations of about 5 mM. […] All stock solutions were stored in the dark at room temperature.
(§5) In some experiments, for example in studies described in Examples below, suspensions of S. aureus cells (10^8 per ml) were incubated with derivatized fullerenes such as NI-1-3 and CI1-3 at a concentration of 100 μM in PBS at room temperature for 10 min. In other experiments, the bacterial suspension was centrifuged (4000×g for 10 min) after incubation and resuspended in fresh PBS before illumination; the latter procedure was referred to herein as a “wash.” E. coli, P. aeruginosa, and C. albicans were used at concentrations of about 10^8 cells per ml.
(§6) Illumination was carried out from above on microbial cell suspensions in wells of a 24-well plate. Aliquots were removed at times corresponding to the delivery of calculated fluences of light, and were serially diluted in PBS and streaked on square BHI or YM agar plates according to the method of Jett et al. (Jett, B. D., Hatter, K. L., Huycke, M. M., and Gilmore, M. S. (1997). Simplified agar plate method for quantifying viable bacteria. Biotechniques 23, 648-650). Survival fractions were calculated with reference to cells incubated in PBS alone. Values on killing curves at 0 J/cm^2 represent the dark toxicity of the fullerenes or other PS tested. Control cells were treated with light and no PS and also analyzed for viability.

P. aeruginosa = assay: as above; assay type: cell-based, Pseudomonas aeruginosa; conditions: 10 μM; for PDT activity against P. aeruginosa: white light up to 50 J/cm^2
Protocol: as §1, §2, §3, §4, §5, §6

C. albicans = assay: as above; assay type: cell-based, Candida albicans; conditions: 10 μM; for PDT activity against C. albicans: white light up to 50 J/cm^2
Protocol: as §1, §2, §3, §4, §5, §6

[1] = test system: L929 murine fibroblast line; assay: Mammalian cell toxicity, MTT viability assay after illumination; assay type: cell-based, mouse; conditions: 10 μM, 10 min; for toxicity to L929 mammalian cells at fluences used for PDI of pathogens: white light up to 50 J/cm^2
Text: Experiments to test the effect of functionalized fullerenes on mammalian cells can be performed in a suitable mammalian cell line. One such cell line is the L929 murine fibroblast line (ATCC #CCL1), a spontaneously transformed immortalized cell line established from the normal subcutaneous areolar and adipose tissue of a male C3H/An mouse (Earle, W. R., Schilling, E. L., Stark, T. H., Straus, N. P., Brown, M. F., and Shelton, E. (1943). Production of malignancy in vitro. IV. The mouse fibroblast cultures and changes seen in the living cells. J. Natl. Cancer Inst. 4, 165-212). In a suitable assay, these cells were cultured in Dulbecco's modified Eagle's medium (Sigma) at 37° C. in a humidified atmosphere containing 5% CO2. The medium is preferably modified by using 4 mM L-glutamine (containing 1.5 g/l sodium bicarbonate and 4.5 g/l glucose), 10% fetal bovine serum (FBS), 100 U/ml penicillin, and […] streptomycin. Cells were plated in 96-well cell culture plates, at a density of about 300 cells/well, and are allowed to attach for 24 hr.
Fullerenes and other PS, e.g., TBO, were added at a concentration of about 10 μM in 200 μl complete medium per well. After 10 min, fresh medium is added, and the cultures were illuminated with white light (for fullerenes) or with red light (for TBO). At the completion of the illumination period, cells were returned to the incubator for 24 hr. Cell viability can be determined, for example, by using the MTT-microculture tetrazolium assay, a method of assessing cellular response to PDT (Merlin, J. L., Azzi, S., Lignon, D., Ramacci, C., Zeghari, N., and Guillemin, F. (1992). MTT assays allow quick and reliable measurement of the response of human tumour cells to photodynamic therapy. Eur. J. Cancer 28A, 1452-1458. This assay involves the reduction of a colorless substrate, i.e., 3-[4,5-Dimethylthiazol-2-yl]-diphenyltetrazolium bromide (Sigma, St. Louis, […].) to an insoluble dark-blue formazan product which is formed in proportion to the amount of succinate dehydrogenase activity in the mitochondria of living cells. After incubation with MTT for periods ranging from 4 to 8 hr, the medium was aspirated from each well, and […] DMSO is added. The absorbance at 570 nm was read by a microplate reader, e.g., a Spectra Max™ 340 PC (Molecular Devices, Sunnyvale, Calif.). The fraction of cells surviving was calculated by dividing the mean absorbances of formazan produced from PDT-treated cells by the mean absorbances from dark controls incubated with PS and kept at room temperature for periods of time equal to the irradiation times.

S. aureus [2] = assay: Photodynamic inactivation (PDI), CFU survival, white light (red light for TBO); assay type: cell-based, Staphylococcus aureus; conditions: for PDT activity against S. aureus: 10 min, white light up to 50 J/cm^2
[3] = Octanol-water distribution coefficient; assay type: physicochemical; conditions: 1-octanol/DI water, absorbance at 330 nm
Protocol: Each compound was dissolved in a minimum amount of DMSO: CI1 (0.9 mg in 200 μl), CI2 (5.3 mg in 200 μl), CI3 (5.4 mg in 200 μl). Ten ml of DI water and 10 ml of 1-octanol were added in each compound and vigorously shaken for 2 min. and the vials of the compounds were settled down overnight. The phases were separated and UV-spectra of each phase were analyzed. Distribution coefficient of each compound was determined using absorbance of aqueous phases and organic phases at 330 nm.

[4] = Solubility in DMSO stock solution; assay type: physicochemical; conditions: lower stock concentration used than for the other fullerenes
Protocol: as §4
Six fullerene derivatives (NI1-3 and CI1-3) were evaluated. […] Concentration of fullerene derivatives used in the experiments varied between 1 and 100 μM.

S. aureus [5] = assay: Photodynamic inactivation (PDI), CFU survival, white light (red light for TBO); assay type: cell-based, Staphylococcus aureus
Protocol: as §1, §2
A noncoherent lamp with filtered liquid light guides, e.g., a LumaCare™ LC122 lamp (MBG Technologies, Inc., Newport Beach, Calif.) was used to provide illumination of PS. […] The lamp was adjusted to give a uniform spot of about 4 cm diameter with an irradiance of 200 mW/cm^2, as measured with a power meter, e.g., a model DMM 199 meter with 201 Standard head (Coherent, Santa Clara, Calif.). […]
Illumination was carried out from above on microbial cell suspensions in wells of a 24-well plate. […] Survival fractions were calculated with reference to cells incubated in PBS alone. […]

[6] = 10 min incubation, up to 16 J/cm2 of red light
[7] = same fluence as for the fullerenes, presence or absence of serum

Structure (SMILES): Cc1cc2nc3ccc(N(C)C)cc3[s+]c2cc1N.[Cl-] [TBO, toluidine blue O, reference compound]
- PDI of E. coli in the presence of serum (E. coli; 10 min, 10% FBS, with a wash, red light): almost ineffective
- killing of E. coli (E. coli; [6]): ≤ 90%
- killing of P. aeruginosa (P. aeruginosa; [6]): ≤ 90%
- killing of P. aeruginosa (P. aeruginosa; [7]): less than 1 log
- killing of C. albicans (C. albicans; [6]): ≤ 90%
- killing of C. albicans (C. albicans; [7]): less than 1 log
- dark toxicity toward L929 cells (killing) ([1]; 10% FBS, with a wash): little dark toxicity
- fluence at which the limit of the viability assay was reached (L929) ([1]; 10% FBS, with a wash, red light): 80 J/cm^2
- additional phototoxicity toward L929 cells ([1]; 10% FBS, with a wash, white or red light up to 120 J/cm^2): pronounced light-dependent toxicity
- killing of S. aureus (S. aureus [2]; 1 μM, 10 min incubation, up to 16 J/cm2 of red light): ≤ 90%
- killing of S. aureus (S. aureus [2]; 1 μM, same fluence as for the fullerenes, presence or absence of serum): less than 1 log

Structure (SMILES): C[N+]1(C)CC2c3c4ccc5c6ccc7c8ccc9c%10ccc%11c(c%12c3c3c4c5c4c6c7c5c8c9c6c%10c%11c%12c7c3c4c5c67)C2C1 (stereo not drawn) [CI1]
- Kow (octanol-water partition constant) [3]: 140.80
- LogKow [3]: 2.15
- solubility in DMSO (stock solution) [4]: poorly soluble
- dark toxicity to S. aureus (killing) (S. aureus [5]; 100 μM, 10 min, 0 J/cm^2): 99%
- PDI of S. aureus (S. aureus [5]; 100, 50, 25, 10 and 1 μM, with a wash, white light 4-8 J/cm2): fluence-dependent loss of viability
- change of E. coli killing in the presence of serum versus no serum (E. coli; 10 min, 10% FBS, with a wash): unchanged
- PDT activity against E. coli (E. coli; 10 min): effectively killed
- killing of E. coli (E. coli; with a wash, 8 J/cm^2 white light): 3 logs
- PDT activity against P. aeruginosa (P. aeruginosa; 10 min): effectively killed
- killing of P. aeruginosa (P. aeruginosa; 10 min, with a wash, white light up to 16 J/cm^2): 2 logs
- PDT activity against C. albicans (C. albicans; 10 min): effectively killed
- toxicity to L929 mammalian cells at fluences used for PDI of pathogens [1]: not killed
- PDT activity against S. aureus (S. aureus [2]; 1 μM): effectively killed
- dark toxicity to S. aureus (S. aureus [2]; 10 and 1 μM, with a wash): nonexistent

Structure (SMILES): C[N+]1(C)Cc2c(c3c4ccc5c6c7c(c8c9ccc%10c%11c%12c%13c(c2c2c3c3c4c5c4c6c8c5c9c%10c%12c6c(c%132)c3c4c56)C2C[N+](C)(C)CC%112)C[N+](C)(C)C7)C1 (stereo not drawn) [CI3]
- Kow (octanol-water partition constant) [3]: 0.37
- LogKow [3]: −0.43
- change of E. coli killing in the presence of serum versus no serum (E. coli; 10 min, 10% FBS, with a wash): about 1 log
- PDT activity against E. coli (E. coli; 10 min): effectively killed
- killing of E. coli (E. coli; with a wash, 2 J/cm^2 white light): 6 logs
- PDT activity against P. aeruginosa (P. aeruginosa; 10 min): effectively killed
- PDT activity against C. albicans (C. albicans; 10 min): effectively killed
- relative effectiveness in killing C. albicans (C. albicans; 10 min, with a wash, white light): slightly more effective than CI2
- toxicity to L929 mammalian cells at fluences used for PDI of pathogens [1]: not killed
- PDT activity against S. aureus (S. aureus [2]; 1 μM): effectively killed
- light sufficient to kill 4-5 logs of S. aureus (S. aureus [2]; 1 μM, with a wash, white light): 1 J/cm^2
